Experimental data from EP2535710A1, “Method for determining the immune toxicity of a compound in vitro” (Rijksinstituut Voor Volksgezondheid En Milieu, priority 2011, dated 2012).

What was measured:
Murine EL4 cells = settings: trypan blue dye exclusion, 0.5 µM TBTO, 37 °C for 6 hr, range in all experiments
Procedure: Murine EL4 cells were cultured as described before [10]. Each treated sample or control contained 5×10^7 cells in a volume of 20 mL. A 1 mM TBTO stock solution was prepared in ethanol and 10 µl of this solution was added to each one of the cell suspension samples so that the final concentration of TBTO was 0.5 µM, whereas 10 µl of ethanol without TBTO was added to the control cells. Two independent replicate experiments for both treated sample and control were performed. Subsequently, cells were incubated at 37 °C for 6 hr.

MAPK1 = assay: Phosphoproteome analysis of TBTO-treated cells (phosphoprotein and TiO2 phosphopeptide enrichment, nano-LC/MS/MS); assay type: cell-based, Murine; settings: whole protein; abundantly present in control cells; EL4 cells, 0.5 µM TBTO, 6 hr
Procedure: (§1) Murine EL4 cells were cultured as described before.
(§2) After exposure, cell suspensions were centrifuged at 1200 rpm for 10 min at 4 °C and the pellets were washed in 20 mL phosphate-buffered saline (PBS, pH 7.2) and centrifuged again. This procedure was repeated twice. The obtained cell pellet of each sample or control was then suspended in 5 mL of phosphoprotein lysis buffer prepared following the instructions of Phosphoprotein Purification Kit (Qiagen). This volume of the lysis buffer contained, in addition to the detergent CHAPS and Benzonase (10 µL), one tablet of protease inhibitor and Phosphatase Inhibitor Cocktail 1 (10 µL). The cell suspension was incubated on ice for 30 min and vortexed briefly and gently every 10 min. After that, the cell lysate was centrifuged at 10.000 rpm for 30 min at 4 °C. The supernatant was then taken and protein concentration determined according to Bradford. A total amount of 2.5 mg protein, at the concentration of 0.1 mg/mL, was loaded on the affinity column, which was pre-equilibrated with lysis buffer as recommended by the manufacturer. The chromatography was performed at room temperature. […] These enriched fractions were combined and the protein concentration was determined. […]

Matrin 3 = assay: Western blot analysis of TBTO-treated and control cell extracts; assay type: cell-based, Murine; settings: Immunoblot, TBTO-treated cells versus control extract; EL4 cells, 0.5 µM TBTO, 6 hr; Fig. 1 b
Procedure: as §1, §2

RPS6KB1 (Thr444/Ser447) = assay: as above; assay type: cell-based, Murine; settings: treated cells compared to control extract, EL4 cells, 0.5 µM TBTO, 6 hr, Figure 1a
Procedure: as §1, §2

cells = settings: TBTO concentrations higher than 1µM and incubation times longer than 6h; refs [10, 21]; cited from earlier work

CCC[CH2][Sn]([CH2]CCC)([CH2]CCC)[O][Sn]([CH2]CCC)([CH2]CCC)[CH2]CCC [TBTO, tributyltin oxide]
Cell viability (Murine EL4 cells): 85-90% | detection of MAPK1 phosphoprotein in TBTO-treated cells (MAPK1): not detected | band corresponding to Matrin 3 (ca. 125-130 kDa) (Matrin 3): not detectable | intensity signal of the band corresponding to Thr444/Ser447 (RPS6KB1 (Thr444/Ser447)): decrease in the intensity signal | apoptosis of cells (cells): caused apoptosis of cells
